Laboratory results published in BindingDB's records for doi:10.1124/jpet.104.081539 (Kyowa Hakko Kogyo, 2005).

Assays:
Histamine H2 receptor = Histamine H2 receptor (Homo sapiens, UniProt P25021)
Thromboxane-A synthase = molecular target: T1, Thromboxane-A synthase (Homo sapiens, UniProt P24557)
T1 sequence (P24557 whole entry): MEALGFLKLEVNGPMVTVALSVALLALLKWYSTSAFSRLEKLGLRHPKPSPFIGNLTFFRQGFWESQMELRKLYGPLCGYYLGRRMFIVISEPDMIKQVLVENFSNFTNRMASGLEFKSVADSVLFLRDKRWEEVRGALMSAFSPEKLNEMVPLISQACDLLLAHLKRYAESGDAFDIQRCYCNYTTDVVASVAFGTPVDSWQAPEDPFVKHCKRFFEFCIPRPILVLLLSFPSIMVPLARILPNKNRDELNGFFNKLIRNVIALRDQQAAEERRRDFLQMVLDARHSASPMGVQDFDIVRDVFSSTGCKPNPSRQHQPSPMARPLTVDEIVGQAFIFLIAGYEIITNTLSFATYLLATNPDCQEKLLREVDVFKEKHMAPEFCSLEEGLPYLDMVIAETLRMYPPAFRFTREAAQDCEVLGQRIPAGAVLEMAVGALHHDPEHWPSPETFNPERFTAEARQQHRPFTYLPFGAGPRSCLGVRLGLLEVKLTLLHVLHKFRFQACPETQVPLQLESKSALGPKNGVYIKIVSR

[1] = molecular target: T2, Prostaglandin G/H synthase 2 (Homo sapiens, UniProt P35354)
T2 sequence (P35354 whole entry): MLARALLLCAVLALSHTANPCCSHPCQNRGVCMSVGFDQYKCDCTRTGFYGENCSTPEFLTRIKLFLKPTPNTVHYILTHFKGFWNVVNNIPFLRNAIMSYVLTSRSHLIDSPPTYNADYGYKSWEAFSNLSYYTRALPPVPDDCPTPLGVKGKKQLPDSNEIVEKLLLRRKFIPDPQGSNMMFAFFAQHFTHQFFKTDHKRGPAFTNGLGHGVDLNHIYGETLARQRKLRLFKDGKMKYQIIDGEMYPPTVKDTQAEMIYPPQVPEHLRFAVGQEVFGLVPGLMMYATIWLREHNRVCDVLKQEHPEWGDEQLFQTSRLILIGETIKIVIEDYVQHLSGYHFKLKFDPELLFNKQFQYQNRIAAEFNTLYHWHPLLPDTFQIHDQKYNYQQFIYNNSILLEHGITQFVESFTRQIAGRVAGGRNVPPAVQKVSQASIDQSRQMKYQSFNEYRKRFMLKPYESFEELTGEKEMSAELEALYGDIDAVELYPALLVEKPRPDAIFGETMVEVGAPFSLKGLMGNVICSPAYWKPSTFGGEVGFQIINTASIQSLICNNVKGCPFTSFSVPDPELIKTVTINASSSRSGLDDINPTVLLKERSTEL

[2] = molecular target: T3, Alpha-1A adrenergic receptor (Rattus norvegicus, UniProt P43140)
T3 sequence (P43140 whole entry): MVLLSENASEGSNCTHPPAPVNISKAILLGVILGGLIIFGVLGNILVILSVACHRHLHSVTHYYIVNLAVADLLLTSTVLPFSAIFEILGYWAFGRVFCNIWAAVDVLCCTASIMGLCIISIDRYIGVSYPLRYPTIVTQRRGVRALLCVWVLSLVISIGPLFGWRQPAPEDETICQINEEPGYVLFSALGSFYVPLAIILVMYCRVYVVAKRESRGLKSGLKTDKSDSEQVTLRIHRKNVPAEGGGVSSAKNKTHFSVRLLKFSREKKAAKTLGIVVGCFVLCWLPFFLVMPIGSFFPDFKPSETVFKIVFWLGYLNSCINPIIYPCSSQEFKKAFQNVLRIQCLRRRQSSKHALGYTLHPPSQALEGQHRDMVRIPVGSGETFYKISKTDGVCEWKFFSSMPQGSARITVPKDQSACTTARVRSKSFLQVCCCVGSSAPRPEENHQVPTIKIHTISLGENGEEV

[3] = molecular target: T4, Polyunsaturated fatty acid 5-lipoxygenase (Homo sapiens, UniProt P09917)
T4 sequence (P09917 whole entry): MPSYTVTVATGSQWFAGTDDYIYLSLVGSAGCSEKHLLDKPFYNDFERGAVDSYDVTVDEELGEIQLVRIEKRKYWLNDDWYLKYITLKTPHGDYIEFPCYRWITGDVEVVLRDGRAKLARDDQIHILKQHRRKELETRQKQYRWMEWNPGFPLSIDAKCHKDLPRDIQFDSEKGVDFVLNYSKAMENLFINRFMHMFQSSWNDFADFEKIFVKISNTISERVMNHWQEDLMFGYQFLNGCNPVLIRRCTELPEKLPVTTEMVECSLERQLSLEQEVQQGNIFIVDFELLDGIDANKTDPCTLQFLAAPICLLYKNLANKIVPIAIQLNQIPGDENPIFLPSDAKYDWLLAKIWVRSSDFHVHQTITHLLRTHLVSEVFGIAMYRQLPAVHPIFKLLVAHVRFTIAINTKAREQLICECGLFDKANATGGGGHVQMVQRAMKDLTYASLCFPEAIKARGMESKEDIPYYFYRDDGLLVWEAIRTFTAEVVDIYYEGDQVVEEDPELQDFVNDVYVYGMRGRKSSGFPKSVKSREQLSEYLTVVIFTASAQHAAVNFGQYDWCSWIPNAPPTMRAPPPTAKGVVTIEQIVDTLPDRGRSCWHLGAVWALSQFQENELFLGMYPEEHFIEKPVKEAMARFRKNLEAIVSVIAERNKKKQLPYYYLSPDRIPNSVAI

[4] = molecular target: T5, 5-hydroxytryptamine receptor 1A (Homo sapiens, UniProt P08908)
T5 sequence (P08908 whole entry): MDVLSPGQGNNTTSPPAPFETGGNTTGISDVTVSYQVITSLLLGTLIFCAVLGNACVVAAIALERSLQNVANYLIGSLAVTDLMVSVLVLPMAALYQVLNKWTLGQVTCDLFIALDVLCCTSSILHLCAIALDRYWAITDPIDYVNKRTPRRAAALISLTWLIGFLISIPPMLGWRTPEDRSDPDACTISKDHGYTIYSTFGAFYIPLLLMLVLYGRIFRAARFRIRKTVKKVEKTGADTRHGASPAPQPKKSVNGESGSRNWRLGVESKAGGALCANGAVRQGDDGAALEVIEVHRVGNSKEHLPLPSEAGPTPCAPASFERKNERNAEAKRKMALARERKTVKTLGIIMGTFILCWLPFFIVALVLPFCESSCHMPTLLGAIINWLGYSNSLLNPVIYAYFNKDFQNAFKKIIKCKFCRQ

Measured: Ki

Sequence of Histamine H2 receptor (P25021 whole entry): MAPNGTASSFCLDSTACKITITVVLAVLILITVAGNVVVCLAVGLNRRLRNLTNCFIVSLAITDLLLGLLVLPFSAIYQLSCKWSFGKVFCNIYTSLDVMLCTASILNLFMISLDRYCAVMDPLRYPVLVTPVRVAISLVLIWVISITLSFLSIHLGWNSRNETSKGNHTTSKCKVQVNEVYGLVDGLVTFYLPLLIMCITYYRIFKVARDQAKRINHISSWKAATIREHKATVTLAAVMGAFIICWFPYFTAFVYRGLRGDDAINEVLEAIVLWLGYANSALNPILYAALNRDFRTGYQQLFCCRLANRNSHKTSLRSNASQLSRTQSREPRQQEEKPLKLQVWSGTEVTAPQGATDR

CC1CC(N(C(=O)C2CC2)c2ccccc2)c2ccccc2N1C(=O)c1ccccc1 (configuration not stated) [K604]
> 1 µM: all assays above

CC(C)C(=O)N(c1ccccc1)C1CC(C)N(C(=O)c2ccccc2)c2ccccc21 (configuration not stated) [K117]
not listed: [4]
> 1 µM: all other assays above

CCC(=O)N1c2ccccc2C(N(C(C)=O)c2ccccc2)CC1C (configuration not stated) [K376]
> 1 µM: all assays above
